Reference: ChEMBL document CHEMBL5380833 (J Med Chem, 2023)
The source made the active and inactive calls. The calls are words filed in the database; no cut-off is given here.

Experiments:
[1] = target: Protein cereblon/Tyrosine-protein kinase ITK/TSK (Homo sapiens, UniProt Q08881+Q96SW2); experiment: PROTAC activity at CRBN/ITK in human Jurkat cells assessed as maximum degradation at 0.01 to 10 uM by Western blot analysis relative to control; assay type: cell-based; settings: dose 0.01-10 µM
[2] = target: T1, Tyrosine-protein kinase ZAP-70 (Homo sapiens) (UniProt P43403); experiment: Induction of degradation of ZAP-70 in human Jurkat cells at 0.01 to 10 uM by immunoblotting analysis; assay type: cell-based; settings: dose 0.01-10 µM
T1 sequence (whole entry): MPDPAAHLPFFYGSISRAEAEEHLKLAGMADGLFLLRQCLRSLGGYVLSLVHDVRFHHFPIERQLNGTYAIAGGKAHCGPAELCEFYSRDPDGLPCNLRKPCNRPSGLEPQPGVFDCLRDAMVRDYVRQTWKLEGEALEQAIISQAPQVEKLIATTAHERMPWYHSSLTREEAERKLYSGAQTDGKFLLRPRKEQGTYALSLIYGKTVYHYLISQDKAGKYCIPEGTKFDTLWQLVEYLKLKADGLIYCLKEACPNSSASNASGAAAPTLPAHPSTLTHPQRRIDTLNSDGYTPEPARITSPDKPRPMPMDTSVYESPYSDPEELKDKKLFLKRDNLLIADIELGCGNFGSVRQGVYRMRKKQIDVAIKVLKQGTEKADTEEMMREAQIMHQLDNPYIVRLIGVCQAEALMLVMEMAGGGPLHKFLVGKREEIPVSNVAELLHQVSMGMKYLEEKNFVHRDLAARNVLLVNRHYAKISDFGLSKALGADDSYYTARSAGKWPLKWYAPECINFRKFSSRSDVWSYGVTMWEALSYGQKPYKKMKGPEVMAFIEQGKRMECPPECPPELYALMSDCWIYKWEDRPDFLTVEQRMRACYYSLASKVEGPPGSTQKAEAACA

[3] = target: Tyrosine-protein kinase Lck (Homo sapiens) (UniProt P06239); experiment: Induction of degradation of LCK in human Jurkat cells at 0.01 to 10 uM by immunoblotting analysis; assay type: cell-based; settings: dose 0.01-10 µM
[4] = target: T2, Cytoplasmic tyrosine-protein kinase BMX (Homo sapiens) (UniProt P51813); experiment: Induction of degradation of BMX in human Jurkat cells at 0.01 to 10 uM by immunoblotting analysis; assay type: cell-based; settings: dose 0.01-10 µM
T2 sequence (whole entry): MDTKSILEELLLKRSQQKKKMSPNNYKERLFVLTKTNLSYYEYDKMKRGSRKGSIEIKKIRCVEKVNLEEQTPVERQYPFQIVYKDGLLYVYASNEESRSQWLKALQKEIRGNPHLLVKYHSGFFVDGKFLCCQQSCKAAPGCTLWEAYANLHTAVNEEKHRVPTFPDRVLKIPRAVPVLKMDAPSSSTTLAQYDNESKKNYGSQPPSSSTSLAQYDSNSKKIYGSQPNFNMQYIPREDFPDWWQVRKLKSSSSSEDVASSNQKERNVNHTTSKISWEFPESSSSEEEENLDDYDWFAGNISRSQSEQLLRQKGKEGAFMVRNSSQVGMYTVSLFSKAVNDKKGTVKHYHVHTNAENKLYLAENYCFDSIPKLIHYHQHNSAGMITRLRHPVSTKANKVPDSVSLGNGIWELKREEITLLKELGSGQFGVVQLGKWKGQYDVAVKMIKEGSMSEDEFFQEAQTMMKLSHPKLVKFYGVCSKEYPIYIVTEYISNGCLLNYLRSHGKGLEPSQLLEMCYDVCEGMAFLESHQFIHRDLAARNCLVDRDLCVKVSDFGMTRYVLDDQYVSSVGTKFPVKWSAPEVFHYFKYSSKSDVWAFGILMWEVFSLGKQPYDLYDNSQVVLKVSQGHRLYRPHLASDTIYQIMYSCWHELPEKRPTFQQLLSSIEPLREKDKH

[5] = target: Tyrosine-protein kinase Yes (Homo sapiens) (UniProt P07947); experiment: Induction of degradation of YES in human Ramos cells at 0.01 to 10 uM by immunoblotting analysis; assay type: cell-based; settings: dose 0.01-10 µM
[6] = target: Interleukin-2 (Homo sapiens, UniProt P60568); experiment: Inhibition of IL-2 in human Jurkat cells pretreated with compound for 4 hrs followed by anti-CD3/CD28 stimulation by ELISA analysis; assay type: cell-based
[7] = AUC (0 to t) in Balb/c mouse at 10 mg/kg, ip measured upto 24 hrs by LC-MS/MS analysis; assay type: ADME, organism-based; set-up: time < 24 hrs, dose 10 mg/kg, route ip; settings: in vivo
[8] = Half life in Balb/c mouse at 10 mg/kg, ip measured upto 24 hrs by LC-MS/MS analysis; assay type: ADME, organism-based; settings: in vivo
[9] = Volume of distribution at steady state in Balb/c mouse at 10 mg/kg, ip measured upto 24 hrs by LC-MS/MS analysis; assay type: ADME, organism-based; settings: in vivo
[10] = Toxicity in Balb/c mouse assessed as drug tolerance at 5 mg/kg, iv measured upto 24 hrs by LC-MS/MS analysis; assay type: organism-based; settings: in vivo

Sequence of Protein cereblon/Tyrosine-protein kinase ITK/TSK (Q08881 whole entry, looked up): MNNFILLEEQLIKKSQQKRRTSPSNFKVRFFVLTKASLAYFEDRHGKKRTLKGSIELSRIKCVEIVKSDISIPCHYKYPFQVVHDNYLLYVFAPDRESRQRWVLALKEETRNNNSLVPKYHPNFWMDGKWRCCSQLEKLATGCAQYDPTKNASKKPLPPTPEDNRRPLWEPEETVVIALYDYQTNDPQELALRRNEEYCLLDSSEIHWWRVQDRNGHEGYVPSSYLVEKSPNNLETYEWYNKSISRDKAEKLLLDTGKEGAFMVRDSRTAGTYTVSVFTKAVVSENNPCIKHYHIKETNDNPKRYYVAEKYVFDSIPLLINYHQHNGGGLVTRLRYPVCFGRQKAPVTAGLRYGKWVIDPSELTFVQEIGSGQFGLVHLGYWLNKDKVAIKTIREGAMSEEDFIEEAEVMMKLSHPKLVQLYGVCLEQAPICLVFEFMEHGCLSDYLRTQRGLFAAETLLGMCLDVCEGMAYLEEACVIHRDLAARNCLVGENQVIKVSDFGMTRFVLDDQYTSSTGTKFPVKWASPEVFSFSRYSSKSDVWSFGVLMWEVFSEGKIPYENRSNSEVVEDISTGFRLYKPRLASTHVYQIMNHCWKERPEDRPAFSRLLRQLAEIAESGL
Sequence of Protein cereblon/Tyrosine-protein kinase ITK/TSK (Q96SW2 whole entry, looked up): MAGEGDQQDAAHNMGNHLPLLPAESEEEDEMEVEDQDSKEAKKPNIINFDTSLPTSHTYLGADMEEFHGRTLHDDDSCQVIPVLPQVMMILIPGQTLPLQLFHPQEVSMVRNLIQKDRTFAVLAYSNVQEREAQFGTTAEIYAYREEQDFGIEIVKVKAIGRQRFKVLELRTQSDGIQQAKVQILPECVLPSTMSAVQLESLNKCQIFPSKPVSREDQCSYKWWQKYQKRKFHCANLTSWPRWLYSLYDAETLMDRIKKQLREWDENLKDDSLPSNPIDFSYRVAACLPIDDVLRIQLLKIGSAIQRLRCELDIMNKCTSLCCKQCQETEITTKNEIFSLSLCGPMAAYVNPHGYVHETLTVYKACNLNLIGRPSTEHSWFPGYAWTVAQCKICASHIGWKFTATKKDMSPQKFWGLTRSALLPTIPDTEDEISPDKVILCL
Sequence of Tyrosine-protein kinase Lck (Homo sapiens) (P06239 2-509 limits assumed): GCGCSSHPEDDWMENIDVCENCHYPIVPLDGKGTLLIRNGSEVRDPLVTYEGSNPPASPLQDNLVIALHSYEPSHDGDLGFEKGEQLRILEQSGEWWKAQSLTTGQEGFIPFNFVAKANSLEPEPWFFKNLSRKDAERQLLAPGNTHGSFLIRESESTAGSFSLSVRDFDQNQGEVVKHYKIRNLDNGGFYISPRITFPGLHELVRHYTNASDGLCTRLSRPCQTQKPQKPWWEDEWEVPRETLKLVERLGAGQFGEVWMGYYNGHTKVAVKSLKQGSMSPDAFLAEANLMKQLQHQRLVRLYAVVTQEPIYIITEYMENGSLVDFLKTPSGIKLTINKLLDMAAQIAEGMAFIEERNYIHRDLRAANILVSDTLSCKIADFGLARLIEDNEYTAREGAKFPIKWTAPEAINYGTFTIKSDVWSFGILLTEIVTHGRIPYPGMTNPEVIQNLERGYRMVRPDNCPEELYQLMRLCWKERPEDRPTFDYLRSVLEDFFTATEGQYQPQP
Sequence of Tyrosine-protein kinase Yes (Homo sapiens) (P07947 2-543 limits assumed): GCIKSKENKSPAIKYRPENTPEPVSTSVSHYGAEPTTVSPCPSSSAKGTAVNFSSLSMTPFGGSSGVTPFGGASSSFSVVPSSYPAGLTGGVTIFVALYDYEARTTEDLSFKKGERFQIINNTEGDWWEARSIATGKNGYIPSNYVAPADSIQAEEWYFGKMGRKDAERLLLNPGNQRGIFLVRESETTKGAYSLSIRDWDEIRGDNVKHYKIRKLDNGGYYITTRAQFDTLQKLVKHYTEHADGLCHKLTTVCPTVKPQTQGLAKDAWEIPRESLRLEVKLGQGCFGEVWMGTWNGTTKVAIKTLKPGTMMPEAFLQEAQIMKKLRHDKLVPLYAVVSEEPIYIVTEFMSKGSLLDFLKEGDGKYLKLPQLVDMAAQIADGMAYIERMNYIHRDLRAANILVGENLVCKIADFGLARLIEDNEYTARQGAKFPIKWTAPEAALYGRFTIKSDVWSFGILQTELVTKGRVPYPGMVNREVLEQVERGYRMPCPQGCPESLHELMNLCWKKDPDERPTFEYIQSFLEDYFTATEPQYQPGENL
Sequence of Interleukin-2 (P60568 whole entry): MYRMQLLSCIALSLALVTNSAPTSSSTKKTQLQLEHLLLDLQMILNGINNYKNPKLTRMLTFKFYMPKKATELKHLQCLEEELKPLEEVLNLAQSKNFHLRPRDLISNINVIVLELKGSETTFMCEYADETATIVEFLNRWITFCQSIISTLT

For `CN(CCCCCC(=O)Nc1ccc2c(c1)C(=O)N(C1CCC(=O)NC1=O)C2=O)CC[C@@H](c1ccccc1)n1cc(NC(=O)c2n[nH]c3c2CCC(C)(C)C3)cn1.O=C(O)C(F)(F)F` (stereo not given in full), the Emax [1] was 99%, the Activity [2] was “inactive” and the Activity [3] was “inactive”. For the same compound, the Activity [4] was “inactive”, the Activity [5] was “inactive” and the EC50 [6] was 25.3 nM. For the same compound, the AUC(0-t) at 24 h [7] was 1560 ng·h/mL, the half-life [8] was 1.95 h and the Vdss [9] was 18.4 L/kg. The Activity [10] was “Non-Toxic”.
